Activity calls are given as the source filed them. No cut-off for these calls is given here.
Tests used:
[1] = target: Acetylcholinesterase (Electrophorus electricus) (UniProt O42275); experiment: Potency index, ratio of rivastigmine IC50 to compound IC50 for electric eel AChE
[2] = target: Cholinesterase (Equus caballus) (UniProt P81908); experiment: Potency index, ratio of rivastigmine IC50 to compound IC50 for equine serum BuChE
Acetylcholinesterase [3] = target: T1, Acetylcholinesterase (Electrophorus electricus, UniProt O42275)
Description: Inhibition of electric eel AChE using acetylthiocholine iodide as substrate preincubated for 15 mins followed by substrate addition measured after 20 mins by Ellman's method

Cholinesterase [4] = target: T2, Cholinesterase (Equus caballus, UniProt P81908)
Description: Inhibition of equine serum BuChE using butyrylthiocholine iodide as substrate preincubated for 15 mins followed by substrate addition measured after 20 mins by Ellman's method

[5] = Antioxidant activity assessed as DPPH radical scavenging activity incubated under dark condition for 30 mins by UV-Visible spectrophotometric method; format: functional
MCF7 = experiment: cells; conditions: Homo sapiens, MCF7, 72 h
Description: Cytotoxicity against human MCF7 cells assessed as reduction in cell viability after 72 hrs by MTT assay

T47D = experiment: cells; conditions: Homo sapiens, 72 h
Description: Cytotoxicity against human T47D cells assessed as reduction in cell viability after 72 hrs by MTT assay

MDA-MB-231 = experiment: cells; conditions: Homo sapiens, MDA-MB-231, 72 h
Description: Cytotoxicity against human MDA-MB-231 cells assessed as reduction in cell viability after 72 hrs by MTT assay

Cholinesterase [6] = target: T2, Cholinesterase; experiment: Mixed-type inhibition of equine serum BuChE using butyrylthiocholine iodide as substrate preincubated for 15 mins followed by substrate addition measured after 20 mins by Lineweaver-Burk plot analysis
Acetylcholinesterase [7] = target: T1, Acetylcholinesterase; experiment: Mixed-type inhibition of electric eel AChE using acetylthiocholine iodide as substrate preincubated for 15 mins followed by substrate addition measured after 20 mins by Lineweaver-Burk plot analysis
PC-12 [8] = experiment: Neuroprotective activity against H2O2-induced cell death in rat PC12 cells assessed as cell viability at 50 uM preincubated for 3 hrs followed by H2O2 addition measured after 24 hrs by MTT assay relative to control; format: functional; conditions: read-out: Activity
PC-12 [9] = experiment: Neuroprotective activity against H2O2-induced cell death in rat PC12 cells assessed as cell viability at 100 uM preincubated for 3 hrs followed by H2O2 addition measured after 24 hrs by MTT assay relative to control; format: functional; conditions: read-out: Activity
PC-12 [10] = experiment: Neuroprotective activity against H2O2-induced cell death in rat PC12 cells assessed as cell viability at 10 uM preincubated for 3 hrs followed by H2O2 addition measured after 24 hrs by MTT assay relative to control; format: functional; conditions: read-out: Activity
Rattus norvegicus [11] = experiment: (§1) Reversal of scopolamine-induced memory impairment in Wistar albino rat assessed as decrease in escape latency time during 4 days training period at 5 to 20 mg/kg, ip administered 60 mins prior to test for 4 consecutive days followed by scopolamine challenge 30 mins prior to test by Morris water maze test; format: functional, organism-based
Rattus norvegicus [12] = experiment: as §1, with “traveled distance” for “escape latency time”; format: functional, organism-based
Rattus norvegicus [13] = experiment: Reversal of scopolamine-induced memory impairment in Wistar albino rat assessed as change in swimming speed during 4 days training period at 5 to 20 mg/kg, ip administered 60 mins prior to test for 4 consecutive days followed by scopolamine challenge 30 mins prior to test by Morris water maze test; format: functional, organism-based
Rattus norvegicus [14] = experiment: Reversal of scopolamine-induced memory impairment in Wistar albino rat assessed as increase in time spent in target quadrant at 5 to 20 mg/kg, ip administered for 4 consecutive days 60 mins prior to test followed by scopolamine challenge 30 mins prior to test measured on day 5 by Morris water maze test; format: functional, organism-based

Sequence of Acetylcholinesterase (Electrophorus electricus) (O42275 24-633 limits assumed): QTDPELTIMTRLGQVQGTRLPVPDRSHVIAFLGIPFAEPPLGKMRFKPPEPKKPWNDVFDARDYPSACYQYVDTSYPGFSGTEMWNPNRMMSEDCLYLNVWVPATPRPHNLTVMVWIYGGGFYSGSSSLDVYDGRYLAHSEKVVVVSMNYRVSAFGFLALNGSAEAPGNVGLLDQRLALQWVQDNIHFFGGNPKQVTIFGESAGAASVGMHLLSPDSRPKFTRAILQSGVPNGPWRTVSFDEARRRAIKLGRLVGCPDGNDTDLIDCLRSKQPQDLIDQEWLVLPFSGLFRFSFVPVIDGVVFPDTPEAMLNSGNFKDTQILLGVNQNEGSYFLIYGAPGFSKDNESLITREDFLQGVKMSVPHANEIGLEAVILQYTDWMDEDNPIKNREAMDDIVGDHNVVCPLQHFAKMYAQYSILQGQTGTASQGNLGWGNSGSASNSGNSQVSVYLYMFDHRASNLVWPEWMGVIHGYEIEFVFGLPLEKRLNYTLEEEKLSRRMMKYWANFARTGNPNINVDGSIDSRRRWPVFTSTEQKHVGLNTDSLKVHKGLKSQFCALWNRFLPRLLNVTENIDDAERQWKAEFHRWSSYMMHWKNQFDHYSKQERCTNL
T1 sequence (O42275 whole entry): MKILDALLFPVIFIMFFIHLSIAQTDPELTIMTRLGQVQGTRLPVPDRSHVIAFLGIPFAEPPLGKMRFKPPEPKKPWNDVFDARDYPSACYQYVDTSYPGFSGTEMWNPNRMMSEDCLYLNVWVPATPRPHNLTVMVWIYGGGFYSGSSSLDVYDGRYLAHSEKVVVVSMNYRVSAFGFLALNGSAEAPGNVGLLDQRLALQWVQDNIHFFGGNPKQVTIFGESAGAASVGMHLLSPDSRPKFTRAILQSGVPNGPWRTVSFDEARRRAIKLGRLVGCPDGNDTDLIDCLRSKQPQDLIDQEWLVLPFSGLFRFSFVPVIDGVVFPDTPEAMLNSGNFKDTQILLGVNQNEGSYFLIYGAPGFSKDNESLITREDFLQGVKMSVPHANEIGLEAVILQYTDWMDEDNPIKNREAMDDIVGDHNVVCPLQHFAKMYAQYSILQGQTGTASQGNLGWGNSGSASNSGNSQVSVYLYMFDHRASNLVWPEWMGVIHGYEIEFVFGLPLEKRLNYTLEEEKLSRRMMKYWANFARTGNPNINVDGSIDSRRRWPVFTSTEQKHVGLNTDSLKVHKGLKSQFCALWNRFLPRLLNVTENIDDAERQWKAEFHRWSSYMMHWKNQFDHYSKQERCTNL
T2 sequence (P81908 whole entry): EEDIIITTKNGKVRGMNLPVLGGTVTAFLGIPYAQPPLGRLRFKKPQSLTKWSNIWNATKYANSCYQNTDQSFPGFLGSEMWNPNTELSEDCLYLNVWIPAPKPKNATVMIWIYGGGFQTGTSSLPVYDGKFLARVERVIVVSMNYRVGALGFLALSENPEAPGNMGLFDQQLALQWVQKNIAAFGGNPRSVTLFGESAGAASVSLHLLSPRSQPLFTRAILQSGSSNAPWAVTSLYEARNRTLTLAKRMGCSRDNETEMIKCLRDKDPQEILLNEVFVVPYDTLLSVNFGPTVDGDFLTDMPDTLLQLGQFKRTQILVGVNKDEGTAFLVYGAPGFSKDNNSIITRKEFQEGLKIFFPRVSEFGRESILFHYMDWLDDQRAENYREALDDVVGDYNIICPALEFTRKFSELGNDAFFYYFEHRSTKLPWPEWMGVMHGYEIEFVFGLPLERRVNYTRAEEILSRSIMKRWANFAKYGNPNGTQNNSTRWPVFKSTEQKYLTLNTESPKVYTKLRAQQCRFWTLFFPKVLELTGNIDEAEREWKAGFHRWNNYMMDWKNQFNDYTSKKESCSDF
Sequence of Cholinesterase (Equus caballus) (P81908 whole entry): as above

Compound	Ratio IC50 [1]	Ratio IC50 [2]	IC50 (Acetylcholinesterase [3]) [nM]	IC50 (Cholinesterase [4]) [nM]	Activity [5]	IC50 (MCF7) [nM]	IC50 (T47D) [nM]	IC50 (MDA-MB-231) [nM]	Ki (Cholinesterase [6]) [nM]	Ki (Acetylcholinesterase [7]) [nM]	viability at 50 µM (PC-12 [8]) [%]	viability at 100 µM (PC-12 [9]) [%]	viability at 10 µM (PC-12 [10]) [%]	Activity (Rattus norvegicus [11])	Activity (Rattus norvegicus [12])	Activity (Rattus norvegicus [13])	Activity (Rattus norvegicus [14])
Clc1ccc(Cn2cc(CNc3c4c(nc5cc(Cl)ccc35)CCCC4)nn2)cc1	3 to 21	2 to 140	983	> 5000													
Cc1ccc(Cn2cc(CNc3c4c(nc5cc(Cl)ccc35)CCCC4)nn2)cc1	3 to 21	2 to 140	1110	65													
Cc1ccc(Cn2cc(CNc3c4c(nc5ccc(Cl)cc35)CCCC4)nn2)cc1	3 to 21	2 to 140	768	747	inactive												
Clc1ccc(Cn2cc(CNc3c4c(nc5ccc(Cl)cc35)CCCC4)nn2)cc1	3 to 21	2 to 140	1960	3940													
c1ccc(Cn2cc(CNc3c4c(nc5ccccc35)CCCC4)nn2)cc1	3 to 21	2 to 140	3300	180		97100	62900	81400									
Fc1ccc(Cn2cc(CNc3c4c(nc5ccccc35)CCCC4)nn2)cc1	3 to 21	2 to 140	2380	59		> 100000	> 100000	> 100000									
Clc1ccc(Cn2cc(CNc3c4c(nc5ccccc35)CCCC4)nn2)cc1	3 to 21	2 to 140	1970	151	inactive												
Clc1ccc2nc3c(c(NCc4cn(Cc5ccccc5)nn4)c2c1)CCCC3	3 to 21	2 to 140	2390	> 5000													
COc1ccc(Cn2cc(CNc3c4c(nc5ccccc35)CCCC4)nn2)cc1	3 to 21	2 to 140	2000	55		> 100000	94100	> 100000	121								
Cc1ccc(Cn2cc(CNc3c4c(nc5ccccc35)CCCC4)nn2)cc1	3 to 21	2 to 140	621	72													
COc1ccc(Cn2cc(CNc3c4c(nc5ccc(Cl)cc35)CCCC4)nn2)cc1	3 to 21	2 to 140	521	1850	inactive	> 100000	> 100000	> 100000		940	73.5	74.8	65.4	Active	Active	inactive	Active
Fc1ccc(Cn2cc(CNc3c4c(nc5ccc(Cl)cc35)CCCC4)nn2)cc1	3 to 21	2 to 140	1440	721													
Fc1ccc(Cn2cc(CNc3c4c(nc5cc(Cl)ccc35)CCCC4)nn2)cc1	3 to 21	2 to 140	2280	216		87500	80000	83400									
Clc1ccc2c(NCc3cn(Cc4ccccc4)nn3)c3c(nc2c1)CCCC3	3 to 21	2 to 140	2320	197		> 100000	97300	> 100000									
COc1ccc(Cn2cc(CNc3c4c(nc5cc(Cl)ccc35)CCCC4)nn2)cc1	3 to 21	2 to 140	737	115													
